Test results taken from patent US8257915B2, “Farnesyltransferase inhibitors for treatment of laminopathies, cellular aging and atherosclerosis” (Progeria Research Foundation, Inc., priority 2002, dated 2012).
Entries after “also recorded” stand apart in the source; their conditions may differ.

Key:
[1] = test system: HeLa cells transfected with wild-type lamin A-CSIM, progerin-CSIM, progerin-SSIM or progerin-CSIL; assay: Nuclear blebbing and GFP localization in transiently transfected HeLa cells treated with FTI; format: cell-based; conditions: 48 hours
Procedure: Transient Transfections. Approximately 25,000 cells were plated per chamber of 4-chamber slides (Lab-Tek, Nalge Nunc International, #154526). After twenty-four hours, HeLa and HEK-293 cell lines were transiently transfected with 0.8 μg of each construct using LIPOFECTAMINE®2000 transfection reagent (Invitrogen) under standard conditions.
(§1) FTI Treatment. At the time of transient transfection, HeLa cells were treated with one dose of 0, 0.5, 1.0, or 2.0 μM of the selective FTI lonafarnib [Sarasar, SCH66336, (Schering-Plough)]. HEK-293 cells were treated with one dose of 0, 1, 2, 5, or 10 μM of the selective FTI L-744832 (Biomol). […] These FTIs have the same mechanism of action and can be used interchangeably to inhibit protein farnesylation in vitro. However, only lonafarnib is a clinical candidate. Normal and HGPS fibroblasts were treated with one daily dose of 0, 0.5, 1.0, or 2.0 μM of lonafarnib for 3 days.
GFP Localization and Fluorescence Microscopy. Forty-eight hours following transient transfection, the HeLa and HEK-293 cells were visualized for GFP localization using an LSM510 confocal microscope (Zeiss). Following three-day treatment with lonafarnib, HGPS fibroblasts were washed two times with phosphate-buffered saline (PBS) (pH 7.2) and fixed for 10 minutes at room temperature with 1% paraformaldehyde in PBS. Following three washes with PBS, the cells were permeabilized for 5 minutes at room temperature with 0.5% Triton X-100 in PBS and blocked with 5% horse serum for 30 minutes at room temperature. Cells were then incubated for one hour at room temperature with the primary antibody diluted in blocking solution, a […] mouse anti-human lamin A/C at 1:10 (mAb3211, Chemicon). Three more washes with PBS were then followed by incubation with the secondary antibody, Alexa 488-conjugated donkey anti-mouse IgG (Molecular Probes), for 45 minutes and three additional PBS washes. Slides were then mounted with mounting medium containing DAPI (Vector Laboratories).
Morphometric Analysis. To examine the overall percentage of blebbed cells in cells with different amounts and lengths of FTI treatment, 200 nuclei were classified as either blebbed, if they contained two or more lobulations, or not blebbed, as previously described (Goldman et al., Proc. Natl. Acad. Sci. USA 101:8963-8968, 2004). These classifications were done by three independent observers, all blinded to the specifics of the cells being examined, followed by averaging three independent data sets. Armitage's trend test (Armitage, Biometrics 11:375-386, 1955) was used to test for a dose-dependent response for each cell type.

[2] = test system: HGPS fibroblast lines AG06917, AG11513, AG11498; assay: Nuclear blebbing of HGPS skin fibroblasts treated with FTI; format: cell-based, human; conditions: once daily 0, 0.5, 1.0, 2.0 μM for three days; p<0.0001
Procedure: Cell Culture. Cell lines used were the normal human fibroblast line, AG06299, and HGPS fibroblast lines: AG06917, AG11513, and AG11498 (obtained from the NIA Aging Cell Culture Repository, Coriell Institute for Medical Research, Camden, N.J.). Fibroblasts were cultured in minimal essential medium (MEM; Invitrogen/Gibco) supplemented with 15% FBS (HiClone), 2 mM L-glutamine, penicillin (50 U/ml) and streptomycin ([…]). HeLa and HEK-293 cell lines were cultured in DMEM (Invitrogen/Gibco) supplemented with 10% fetal bovine serum and antibiotics.
as §1
GFP Localization and Fluorescence Microscopy. Forty-eight hours following transient transfection, the HeLa and HEK-293 cells were visualized for GFP localization using an LSM510 confocal microscope (Zeiss). […]

[3] = test system: several human cancer cell lines; conditions: cited from earlier work
[4] = test system: human brain, lung, prostate, pancreas, colon, and bladder tumor xenografts; conditions: nude mice; cited from earlier work
protein farnesylation = conditions: Phase I clinical trial; cited from earlier work
BCR/ABL = conditions: cell culture and mouse models; cited from earlier work
[5] = Phase III trials, including trials involving children; cited from earlier work

With `NC(=O)N1CCC(CC(=O)N2CCC([C@H]3c4ncc(Br)cc4CCc4cc(Cl)cc(Br)c43)CC2)CC1` [lonafarnib] the “change of nuclear blebbing, wild-type lamin A-CSIM” value ([1]; 0 to 2.0 μM) was “unchanged; also recorded: does not change significantly”, the “percentage of nuclear blebbing, wild-type lamin A-CSIM” value ([1]; 0 to 2.0 μM) was “approximately 5%” and the “nuclear blebbing, progerin-CSIM” value ([1]; 2 μM single dose at transfection) was “approaching normal blebbing percentages; also recorded: almost totally abolishes”. For the same compound, the “localization of progerin, progerin-CSIM” value ([1]; 2 μM) was “relocalization of progerin into nucleoplasmic aggregates”, the “dose response of nuclear blebbing, progerin-CSIM” value ([1]; single dose 0, 0.5, 1.0, 2.0 μM, p<0.0001) was “dramatic dose-dependent response” and the “nuclear blebbing, progerin-CSIL” value ([1]; up to 2 μM) was “completely resistant; also recorded: resistant to FTI treatment; also recorded: resistant to inhibition of farnesylation”. The “phenotype, progerin-SSIM” value ([1]; up to 2 μM) was “no difference; also recorded: does not change significantly”, the “nuclear blebbing in HGPS fibroblasts” value [2] was “significant dose-dependent reduction; also recorded: reversion of the nuclear blebbing” and the “proliferation of several human cancer cell lines” value [3] was “inhibit proliferation”. The “activity against human tumor xenografts” value [4] was “active”, the “protein farnesylation in vivo” value (protein farnesylation) was “inhibits” and the tolerability (protein farnesylation) was “generally well tolerated”. The anti-leukemic activity (BCR/ABL) was “demonstrated” and the tolerability [5] was “well tolerated”.
